Reference: patent US9938281B2 (Merck Sharp & Dohme Corp., priority 2012, dated 2018)
pIC50: −log10 of the molar value.

Legend:
PI3K-delta = target: T1, PI3K-delta (Homo sapiens, UniProt O00329); assay: HTRF PI3K biochemical assay, delta isoform; conditions: form screened (neutral or TFA salt) given, read-out: PI3Kdelta IC50
T1 construct: purchased Upstate; Millipore 14-604

PI3K-alpha = target: T2, PI3K-alpha (Homo sapiens, UniProt P42336); assay: HTRF PI3K biochemical assay, alpha isoform; conditions: ratio PI3K-alpha IC50 value / PI3K-delta IC50 value
T2 construct: purchased Upstate; Millipore 14-602
T2 sequence (P42336 whole entry, canonical isoform): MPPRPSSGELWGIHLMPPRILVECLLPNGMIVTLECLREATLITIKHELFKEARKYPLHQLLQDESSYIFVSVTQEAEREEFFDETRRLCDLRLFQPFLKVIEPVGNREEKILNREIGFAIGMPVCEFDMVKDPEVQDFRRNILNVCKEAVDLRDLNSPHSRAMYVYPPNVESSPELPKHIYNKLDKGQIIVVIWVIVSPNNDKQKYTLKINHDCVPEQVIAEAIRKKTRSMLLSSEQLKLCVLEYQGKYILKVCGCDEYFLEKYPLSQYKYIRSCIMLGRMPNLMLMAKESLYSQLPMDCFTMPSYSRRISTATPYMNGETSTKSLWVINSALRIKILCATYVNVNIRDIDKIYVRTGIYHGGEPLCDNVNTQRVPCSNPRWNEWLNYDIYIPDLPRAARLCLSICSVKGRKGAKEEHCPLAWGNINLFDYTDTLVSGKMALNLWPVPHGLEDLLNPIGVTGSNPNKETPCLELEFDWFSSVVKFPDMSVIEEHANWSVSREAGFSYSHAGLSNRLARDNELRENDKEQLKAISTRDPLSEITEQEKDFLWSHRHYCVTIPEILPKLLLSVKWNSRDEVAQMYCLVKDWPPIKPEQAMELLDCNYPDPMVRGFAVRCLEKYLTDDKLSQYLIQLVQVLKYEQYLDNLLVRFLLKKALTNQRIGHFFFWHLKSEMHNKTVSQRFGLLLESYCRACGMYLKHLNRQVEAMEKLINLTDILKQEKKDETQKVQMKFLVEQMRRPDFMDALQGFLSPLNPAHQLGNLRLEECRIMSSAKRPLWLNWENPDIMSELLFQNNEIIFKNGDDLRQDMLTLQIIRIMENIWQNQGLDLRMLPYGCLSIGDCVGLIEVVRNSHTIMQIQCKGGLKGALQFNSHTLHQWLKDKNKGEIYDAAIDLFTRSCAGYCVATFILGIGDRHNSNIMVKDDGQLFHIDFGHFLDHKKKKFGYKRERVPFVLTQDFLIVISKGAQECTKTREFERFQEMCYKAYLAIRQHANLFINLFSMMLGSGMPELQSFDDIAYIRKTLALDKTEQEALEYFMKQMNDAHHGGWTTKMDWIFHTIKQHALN
T2 sequence (P27986 whole entry partner, canonical isoform): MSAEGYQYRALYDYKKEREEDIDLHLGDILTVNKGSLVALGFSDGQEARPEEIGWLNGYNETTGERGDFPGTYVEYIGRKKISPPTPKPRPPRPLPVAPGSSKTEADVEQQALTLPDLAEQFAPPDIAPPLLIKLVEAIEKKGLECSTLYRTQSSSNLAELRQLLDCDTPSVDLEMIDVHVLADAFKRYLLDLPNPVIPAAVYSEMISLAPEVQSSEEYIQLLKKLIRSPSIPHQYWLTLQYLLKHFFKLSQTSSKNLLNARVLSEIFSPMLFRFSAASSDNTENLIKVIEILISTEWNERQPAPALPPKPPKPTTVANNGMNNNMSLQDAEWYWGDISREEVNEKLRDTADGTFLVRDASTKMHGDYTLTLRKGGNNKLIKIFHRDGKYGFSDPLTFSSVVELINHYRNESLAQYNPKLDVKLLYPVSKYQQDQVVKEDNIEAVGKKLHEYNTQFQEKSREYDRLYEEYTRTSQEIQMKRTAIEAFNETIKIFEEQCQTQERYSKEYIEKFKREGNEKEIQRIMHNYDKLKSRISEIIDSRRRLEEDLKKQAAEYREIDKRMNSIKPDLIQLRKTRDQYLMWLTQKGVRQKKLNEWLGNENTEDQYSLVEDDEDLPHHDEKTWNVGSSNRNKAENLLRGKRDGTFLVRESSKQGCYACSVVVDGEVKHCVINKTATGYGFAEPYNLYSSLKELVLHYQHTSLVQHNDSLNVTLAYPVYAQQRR

T1 sequence (O00329 whole entry, canonical isoform): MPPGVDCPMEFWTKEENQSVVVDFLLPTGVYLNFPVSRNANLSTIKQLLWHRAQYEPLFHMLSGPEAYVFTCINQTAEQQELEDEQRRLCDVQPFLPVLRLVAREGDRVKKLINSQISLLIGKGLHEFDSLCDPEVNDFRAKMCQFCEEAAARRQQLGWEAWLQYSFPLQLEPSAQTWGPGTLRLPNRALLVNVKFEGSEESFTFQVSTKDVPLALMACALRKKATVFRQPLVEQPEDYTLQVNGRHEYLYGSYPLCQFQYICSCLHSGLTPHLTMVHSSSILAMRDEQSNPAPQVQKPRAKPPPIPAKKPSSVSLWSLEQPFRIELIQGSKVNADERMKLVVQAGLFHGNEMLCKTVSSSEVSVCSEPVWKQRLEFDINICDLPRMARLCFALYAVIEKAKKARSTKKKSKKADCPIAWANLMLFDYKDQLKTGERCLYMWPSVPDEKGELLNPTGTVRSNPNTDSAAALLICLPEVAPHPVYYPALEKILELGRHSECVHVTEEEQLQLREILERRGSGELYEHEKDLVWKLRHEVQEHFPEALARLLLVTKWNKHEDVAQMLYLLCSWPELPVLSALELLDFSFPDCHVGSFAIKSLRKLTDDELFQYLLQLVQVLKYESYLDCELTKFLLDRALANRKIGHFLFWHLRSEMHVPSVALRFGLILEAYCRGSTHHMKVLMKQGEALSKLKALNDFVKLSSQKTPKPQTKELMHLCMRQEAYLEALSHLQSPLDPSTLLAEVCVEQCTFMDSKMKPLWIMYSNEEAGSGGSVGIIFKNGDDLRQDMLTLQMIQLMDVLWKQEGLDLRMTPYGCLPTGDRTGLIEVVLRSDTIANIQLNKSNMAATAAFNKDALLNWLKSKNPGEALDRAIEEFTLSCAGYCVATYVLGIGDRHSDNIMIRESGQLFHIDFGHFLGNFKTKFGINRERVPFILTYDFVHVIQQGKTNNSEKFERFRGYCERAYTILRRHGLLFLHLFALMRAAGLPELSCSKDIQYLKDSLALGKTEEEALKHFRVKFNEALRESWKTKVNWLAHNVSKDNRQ
T1 sequence (P27986 whole entry partner, canonical isoform): as the sequence (P27986 whole entry partner, canonical isoform) above

| SMILES | pIC50 (PI3K-delta) | Selectivity versus PI3Kalpha (PI3K-alpha) |
| --- | --- | --- |
| CCOC(=O)CCNC(=O)N1CC[C@H](Nc2ncnc3c2nc(-c2cnc(C)nc2)n3CC)C1 [Compound 12-17, ethyl N-{[(3S)-3-{[9-ethyl-8-(2-methylpyrimidin-5-yl)-9H-purin-6-yl]amino}pyrrolidin-1-yl]carbonyl}-beta-alaninate] | 7.89 | >10 |
| CCOC(=O)C(C)NC(=O)N1CC[C@H](Nc2ncnc3c2nc(-c2cnc(C)nc2)n3CC)C1 (stereo partly drawn) [Compound 12-18, ethyl N-{[(3S)-3-{[9-ethyl-8-(2-methylpyrimidin-5-yl)-9H-purin-6-yl]amino}pyrrolidin-1-yl]carbonyl}(D and L)-alaninate] | 7.89 | >10 |
| CCn1c(-c2cnc(C)nc2)nc2c(N[C@H]3CCN(C(=O)NC(C)C)C3)ncnc21 [Compound 12-19, (3S)-3-{[9-ethyl-8-(2-methylpyrimidin-5-yl)-9H-purin-6-yl]amino}-N-(1-methylethyl)pyrrolidine-l-carboxamide] | 7.89 | >10 |
| CCn1c(-c2cnc(C)nc2)nc2c(N[C@H]3CCN(C(=O)NCc4ccco4)C3)ncnc21 [Compound 12-21, (3S)-3-{[9-ethyl-8-(2-methylpyrimidin-5-yl)-9H-purin-6-yl]amino}-N-(furan-2-ylmethyl)pyrrolidine-1-carboxamide] | 8.15 | >10 |
| CCn1c(-c2cnc(C)nc2)nc2c(N[C@H]3CCN(C(=O)NC4CCC4)C3)ncnc21 [Compound 12-22, (3S)-N-cyclobutyl-3-{[9-ethyl-8-(2-methylpyrimidin-5-yl)-9H-purin-6-yl]amino}pyrrolidine-1-carboxamide] | 8.28 | >10 |
| CCCCNC(=O)N1CC[C@H](Nc2ncnc3c2nc(-c2cnc(C)nc2)n3CC)C1 [Compound 12-23, (3S)-N-butyl-3-{[9-ethyl-8-(2-methylpyrimidin-5-yl)-9H-purin-6-yl]amino}pyrrolidine-1-carboxamide] | 8.46 | >10 |
| CCn1c(-c2cnc(C)nc2)nc2c(N[C@H]3CCN(C(=O)NC(C)(C)C(=O)OC)C3)ncnc21 [Compound 12-24, methyl N-{[(3S)-3-{[9-ethyl-8-(2-methylpyrimidin-5-yl)-9H-purin-6-yl]amino}pyrrolidin-1-yl]carbonyl}-2-methylalaninate] | 8.72 | >10 |
| CCn1c(-c2cnc(C)nc2)nc2c(N[C@H]3CCN(C(=O)NC(C)(C)CC(C)(C)C)C3)ncnc21 [Compound 12-25, (3S)-3-{[9-ethyl-8-(2-methylpyrimidin-5-yl)-9H-purin-6-yl]amino}-N-(1,1,3,3-tetramethylbutyl)pyrrolidine-1-carboxamide] | 8.85 | >10 |
| CCn1c(-c2ccc(C(F)(F)F)nc2)nc2c(N[C@H]3CCN(C(=O)N4CCC4)C3)ncnc21 [Compound 12-26, N-[(3S)-1-(azetidin-1-ylcarbonyl)pyrrolidin-3-yl]-9-ethyl-8-[6-(trifluoromethyl)pyridin-3-yl]-9H-purin-6-amine] | > 9.00 | >10 |
| CCn1c(C(=O)NCC(F)(F)F)nc2c(N[C@H]3CCN(C(=O)N4CC(OC)C4)C3)ncnc21 [Compound 12-27, 9-ethyl-6-({(3S)-1-[(3-methoxyazetidin-1-yl)carbonyl]pyrrolidin-3-yl}amino)-N-(2,2,2-trifluoroethyl)-9H-purine-8-carboxamide] | 8.29 | >10 |
| CCn1c(-c2cnc(C)nc2)nc2c(N[C@H]3CCN(C(=O)OCC(F)(F)F)C3)ncnc21 [Compound 13-1, 2,2,2-trifluoroethyl (3S)-3-{[9-ethyl-8-(2-methylpyrimidin-5-yl)-9H-purin-6-yl]amino}pyrrolidine-1-carboxylate] | 7.68 | >10 |
| CCn1c(-c2cnc(C)nc2)nc2c(N[C@H]3CCN(C(=O)OC)C3)ncnc21 [Compound 13-2, methyl (3S)-3-{[9-ethyl-8-(2-methylpyrimidin-5-yl)-9H-purin-6-yl]amino}pyrrolidine-l-carboxylate] | 8.04 | >10 |
| CCn1c(-c2cnc(C)nc2)nc2c(N[C@H]3CCN(C(=O)OCCF)C3)ncnc21 [Compound 13-3, 2-fluoroethyl (3S)-3-{[9-ethyl-8-(2-methylpyrimidin-5-yl)-9H-purin-6-yl]amino}pyrrolidine-1-carboxylate] | 8.06 | >10 |
| CCn1c(-c2cnc(C)nc2)nc2c(N[C@H]3CCN(C(=O)OCC(C)(C)C)C3)ncnc21 [Compound 13-4, 2,2-dimethylpropyl (3S)-3-{[9-ethyl-8-(2-methylpyrimidin-5-yl)-9H-purin-6-yl]amino}pyrrolidine-1-carboxylate] | 8.09 | >10 |
| CCn1c(-c2cnc(C)nc2)nc2c(N[C@H]3CCN(C(=O)OC(C)C)C3)ncnc21 [Compound 13-5, 1-methylethyl (3S)-3-{[9-ethyl-8-(2-methylpyrimidin-5-yl)-9H-purin-6-yl]amino}pyrrolidine-1-carboxylate] | 8.21 | >10 |
| CCn1c(-c2cnc(C)nc2)nc2c(N[C@H]3CCN(C(=O)OCCOC)C3)ncnc21 [Compound 13-7, 2-methoxyethyl (3S)-3-{[9-ethyl-8-(2-methylpyrimidin-5-yl)-9H-purin-6-yl]amino}pyrrolidine-1-carboxylate] | 8.39 | >10 |
| CCn1c(-c2cnc(C)nc2)nc2c(N[C@H]3CCN(C(=O)OC4CCCCC4)C3)ncnc21 [Compound 13-8, cyclohexyl (3S)-3-{[9-ethyl-8-(2-methylpyrimidin-5-yl)-9H-purin-6-yl]amino}pyrrolidine-l-carboxylate] | 8.41 | >10 |
| CCn1c(-c2cnc(C)nc2)nc2c(N[C@H]3CCN(C(=O)OCc4ccccc4)C3)ncnc21 [Compound 13-10, benzyl (3S)-3-{[9-ethyl-8-(2-methylpyrimidin-5-yl)-9H-purin-6-yl]amino}pyrrolidine-1-carboxylate] | 8.70 | >10 |
| CCn1c(-c2cnc(C)nc2)nc2c(N[C@H]3CCN(C(=O)OCCCN(C)C)C3)ncnc21 [Compound 13-11, 3-(dimethylamino)propyl (3S)-3-{[9-ethyl-8-(2-methylpyrimidin-5-yl)-9H-purin-6-yl]amino}pyrrolidine-1-carboxylate] | 8.37 | >10 |
| CCn1c(-c2cnc(C)nc2)nc2c(N[C@H]3C[C@H](C(=O)O)N(C(=O)C4CC4)C3)ncnc21 [Compound 15-1, (4S)-1-(cyclopropylcarbonyl)-4-{[9-ethyl-8-(2-methylpyrimidin-5-yl)-9H-purin-6-yl]amino}-D-proline] | 8.60 | >10 |
| CCn1c(-c2cnc(C)nc2)nc2c(N[C@H]3C[C@H](C(=O)N(C)C)N(C(=O)C4CC4)C3)ncnc21 [Compound 15-2, (4S)-1-(cyclopropylcarbonyl)-4-{[9-ethyl-8-(2-methylpyrimidin-5-yl)-9H-purin-6-yl]amino}-N,N-dimethyl-D-prolinamide] | 7.85 | >10 |
